What was measured:
[1] = system: patients with multiple myeloma following ASCT; settings: maintenance with lenalidomide following ASCT; 22.1 months follow up; cited from earlier work
minimal residual disease = assay: Example 1: MRD negativity by next-generation sequencing and EuroFlow; format: in vivo, human; settings: subjects on lenalidomide maintenance after anti-BCMA CAR-T cells, subsequent analysis
Experimental: Exploratory endpoints, which included assessment of biomarkers (serum level of soluble BCMA (sBCMA) and inflammatory cytokines) by Luminex assay and minimal residual disease negativity (MRD−) by using aggregation of next-generation sequencing and 8-color flow cytometry (EuroFlow; sensitivity <10^−5 nucleated cells) data with interpolation to reduce missing/indeterminate data points. sBCMA levels were evaluated at leukapheresis; baseline; days 1, 4, and 8; and until disease progression. Plasma levels of immune-related inflammatory cytokines (interferon-γ (IFNγ), interleukin-6 (IL-6), interleukin-8 (IL-8) and interleukin-10 (IL-10)) were evaluated at leukapheresis; baseline; days 1-8, 10, 12, 15 18 and 22; and months 2 and 4. Efficacy and safety were analyzed in all subjects who received anti-BCMA CAR-T cells. PK, sBCMA, and MRD-were analyzed in evaluable subjects.

In the case of Nc1cccc2c1CN(C1CCC(=O)NC1=O)C2=O (centres unmarked) [lenalidomide, 3-(4-amino-1-oxo-1,3-dihydro-2H-isoindol-2-yl) piperidine-2,6-dione], the complete response rate [1] is given as 60.9%, the “patients achieving minimal residual disease negativity” value [1] is given as 20.4 and the “MRD-negativity maintained at 36 months” value (minimal residual disease; 2/3 evaluable) is given as 66.7%. For the same compound, the “MRD-negativity maintained at 12 months” value (minimal residual disease; 4/6 evaluable) was 66.7% and the “MRD-negativity maintained at 24 months” value (minimal residual disease; 4/6 evaluable) was 66.7%.

Source: patent US20260166082A1, “METHODS OF TREATMENT WITH T CELL THERAPY AND IMMUNOMODULATORY AGENT MAINTENANCE THERAPY” (Celgene Corporation, priority 2022, published 2026)
